Source: patent US11491165B2 (Kinoxis Therapeutics Pty Ltd, priority 2016, dated 2022)
Values belong to the molecule of their own block, whether it stands above or below them.

Columns and labels:
[1] = target: T1, oxytocin receptor (OXTR), hOTR (Homo sapiens, UniProt P30559); assay: Competition radioligand binding, [3H]-oxytocin, OTR-expressing HEK293 membranes; conditions: [3H]-oxytocin 10 nM, 90 min 4 °C
T1 construct: expressed in transfected cells
T1 sequence (P30559 1-389): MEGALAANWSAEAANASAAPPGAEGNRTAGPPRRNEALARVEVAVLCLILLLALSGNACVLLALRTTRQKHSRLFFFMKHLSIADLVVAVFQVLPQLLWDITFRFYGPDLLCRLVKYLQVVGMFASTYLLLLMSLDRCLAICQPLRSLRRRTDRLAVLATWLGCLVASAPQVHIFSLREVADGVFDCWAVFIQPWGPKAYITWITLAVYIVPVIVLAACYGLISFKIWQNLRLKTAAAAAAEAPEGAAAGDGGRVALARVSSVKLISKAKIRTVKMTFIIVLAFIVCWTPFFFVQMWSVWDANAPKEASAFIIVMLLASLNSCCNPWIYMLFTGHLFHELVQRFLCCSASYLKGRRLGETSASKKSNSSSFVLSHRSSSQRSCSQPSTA
Method: (§1) Human embryonic kidney cells (HEK-293) transfected to stably express untagged hOTR and V1aR using the Flp-In™ T-REx™ system (Life Technologies, Carlsbad, Calif. USA) were established as reported in Jorgensen et al., 2016 (the entire disclosure of which is hereby incorporated by reference). Cells were subsequently maintained in 10% DMEM containing hygromycin (80 μg/ml), penicillin (100 U/ml), streptomycin (0.1 mg/ml) and blasticidine S hydrochloride (15 μg/ml).
(§2) To induce receptor expression, cells were incubated with tetracycline (2 μg/mL) for 48 h. PBS with 5 mM EDTA (pH 7.4) was used to detach OTR and V1aR-expressing HEK293 cells from culture flasks. Harvested cells were centrifuged at 1200 g for 5 min and were resuspended in homogenization buffer (50 mM HEPES, 5 mM EDTA, 5 mM MgCl2; pH 7.4) prior to homogenization using an Ultra-Turrax homogeniser (IKA, Wilmington, N.C., USA). Homogenates were centrifuged three times for 30 min at 48.000 g, 4° C. for 30 min and membrane pellets resuspended in 50 mM Tris HCl, 5 mM MgCl2 (pH 7.4). A bicinchoninic acid assay was used according to the manufacturer's protocol (Bio-Rad, Hercules. Calif., USA) to measure final protein concentration. Membranes were stored at −80° C. until use in competition radioligand binding studies.
(§3) Reactions were incubated for 90 min at 4° C. to reach equilibrium, and terminated by rapid filtration over glass fibre filters (Whatman GF/A […]; Millipore, Darmstadt, Germany), and washing with ice-cold reaction buffer. Filters were dried, then incubated with Microscint 0 (Perkin Elmer) for 30 min before radioactivity was detected with a Microbeta2 2450 microplate-reader (Perkin Elmer). […] Specific binding in the presence of compounds was expressed as a percentage of specific binding in the presence of vehicle control. A sum-of-squares F-test was used to compare the goodness of fit of one-site, two-site and sigmoidal with variable hill slope binding models, and to calculate Ki's using Graphpad Prism (Graphpad Software, La Jolla, Calif., USA).

[2] = target: T2, vasopressin 1a receptor (V1aR) (Homo sapiens, UniProt P37288); assay: IP1 accumulation assay, V1aR-expressing HEK-293 cells (agonist and antagonist assessment); type: cell-based; conditions: for EC50: agonist assessment, IP1, 1 h; for IC50: antagonist assessment vs AVP 25 nM (~EC70), IP1
T2 construct: expressed in transfected cells
T2 sequence (P37288 whole entry): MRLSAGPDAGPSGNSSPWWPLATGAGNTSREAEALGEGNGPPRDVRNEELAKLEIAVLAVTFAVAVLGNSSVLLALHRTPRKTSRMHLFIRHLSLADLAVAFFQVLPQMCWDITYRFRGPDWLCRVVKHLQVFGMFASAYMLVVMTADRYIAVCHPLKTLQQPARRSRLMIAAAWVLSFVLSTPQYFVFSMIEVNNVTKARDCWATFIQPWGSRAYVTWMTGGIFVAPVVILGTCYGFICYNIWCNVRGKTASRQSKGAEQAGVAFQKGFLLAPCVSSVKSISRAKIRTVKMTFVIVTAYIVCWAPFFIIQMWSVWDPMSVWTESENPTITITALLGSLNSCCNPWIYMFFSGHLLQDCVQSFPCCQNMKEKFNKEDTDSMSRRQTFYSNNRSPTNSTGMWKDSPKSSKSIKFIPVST
Method: Cells were subsequently maintained in 10% DMEM containing hygromycin (80 μg/ml), penicillin (100 U/ml), streptomycin (0.1 mg/ml) and blasticidine S hydrochloride (15 μg/ml).
Cells were incubated in tetracycline (2 μg/mL) for 48 h to induce receptor expression. Intracellular IP1 levels induced by activation of the Gq protein coupled to the OTR and V1aR was indexed using the HTRF IP-One kit (CisBio International, Bedford, Mass., USA), according to manufacturer's protocol. For agonist assessment, cells were incubated with logarithmically-spaced concentrations of compounds (1 nM-100 μM) for 1 h prior to the addition of Ab-Cryptate and IP1-d2 for 1 h. The contents of each well were transferred to a white-walled proxy plate (Perkin Elmer) and fluorescence read using a Pherastar Microplate reader (BMG Labtech, Cary, N.C., USA). […] IP1 levels in the presence of compounds and OT or AVP were expressed as a percentage of levels seen with OT or AVP in the presence of vehicle control. Concentration response curves for OT and AVP were determined after 5 min incubation in drug or vehicle, and the data fitted using GraphPad PRISM to a 4-parameter logistic equation of the form y=Min+(Max−Min)/(1+10^((logEC50−X)*n)) where X is drug concentration and n is the H-ill slope. Data represent the mean±s.d. of at least 3 independent experiments, each in duplicate.

[3] = target: T2, vasopressin 1a receptor (V1aR); assay: Competition radioligand binding, [3H]-vasopressin, V1aR-expressing HEK293 membranes; conditions: [3H]-vasopressin 2 nM, 90 min 4 °C
Method: as §1, §2, §3

[4] = target: T1, oxytocin receptor (OXTR), hOTR; assay: IP1 accumulation assay, OTR-expressing HEK-293 cells (agonist and antagonist assessment); type: cell-based; conditions: for Emax: HEK293, read-out: OXTR Emax (% OXT); for EC50: IP1, 1 h; for OV function: ratio of OXTR functional potency to V1aR functional potency, 'OT only' = function at OXTR only
Method: as §1
OTR or V1aR-expressing HEK-293 cells were seeded onto poly-L-lysine (100 μg/ml)-coated 384-well plates at a density of 8.75×10^3 cells per well. Cells were incubated in tetracycline (2 μg/mL) for 48 h to induce receptor expression. Intracellular IP1 levels induced by activation of the Gq protein coupled to the OTR and V1aR was indexed using the HTRF IP-One kit (CisBio International, Bedford, Mass., USA), according to manufacturer's protocol. For agonist assessment, cells were incubated with logarithmically-spaced concentrations of compounds (1 nM-100 μM) for 1 h prior to the addition of Ab-Cryptate and IP1-d2 for 1 h. The contents of each well were transferred to a white-walled proxy plate (Perkin Elmer) and fluorescence read using a Pherastar Microplate reader (BMG Labtech, Cary, N.C., USA). For antagonist assessment, cells were incubated an ˜EC70 concentration of OT (30 nM) or AVP (25 nM) mixed with compounds (1 nM-100 μM) or vehicle control for 1 h. IP1 levels in the presence of compounds and OT or AVP were expressed as a percentage of levels seen with OT or AVP in the presence of vehicle control. Concentration response curves for OT and AVP were determined after 5 min incubation in drug or vehicle, and the data fitted using GraphPad PRISM to a 4-parameter logistic equation of the form y=Min+(Max−Min)/(1+10^((logEC50−X)*n)) where X is drug concentration and n is the H-ill slope. Data represent the mean±s.d. of at least 3 independent experiments, each in duplicate.

melting point: 198 to 211 °C
SMILES: COC(=O)C12CCC(C(=O)N3Cc4cnn(C)c4Nc4ccccc43)(CC1)CC2 [BcO-MC, methyl 4-(1-methyl-1,4,5,10-tetrahydrobenzo[b]pyrazolo[3,4-e][1,4]diazepine-5-carbonyl)bicyclo[2.2.2]octane-1-carboxylate]

Ki [1]: 1080 ± 323 nM | EC50 [2]: > 10000 nM | IC50 [2]: > 10000 nM | Ki [3]: 236 ± 75 nM | Emax [4]: 17% | EC50 ([4]; agonist assessment): 481 ± 61 nM | OV function [4]: <0.04
SMILES: Cn1ncc2c1Nc1ccccc1N(C(=O)C1CCCCC1)C2 [CA6 (KA), cyclohexyl(1-methyl-4,10-dihydrobenzo[b]pyrazolo[3,4-e][1,4]diazepin-5 (1H)-yl)methanone]

melting point: 221 to 224 °C
SMILES: Cn1ncc2c1Nc1ccccc1N(C(=O)c1cc(OCc3ccccc3)cc(OCc3ccccc3)c1)C2 [Example 9, (3,5-Bis(benzyloxy)phenyl)(1-methyl-4,10-dihydrobenzo[b]pyrazolo[3,4-e][1,4]diazepin-5 (1H)-yl)methanone]

melting point: 194 to 203 °C
SMILES: Cn1ncc2c1Nc1ccccc1N(C(=O)C13C4C5C6C4C1C6C53)C2 (stereo not shown) [QB]

melting point: > 300 °C
SMILES: Cn1ncc2c1Nc1ccccc1N(C(=O)c1ccc(O)cc1)C2 [TAR-B049, (4-hydroxyphenyl)(1-methyl-4,10-dihydrobenzo[b]pyrazolo[3,4-e][1,4]diazepin-5 (1H)-yl)methanone]

melting point: 204 to 206 °C
SMILES: CCCCCCOc1ccc(C(=O)N2Cc3cnn(C)c3Nc3ccccc32)cc1 [TAR-B085, (4-(hexyloxy)phenyl)(1-methyl-4,10-dihydrobenzo[b]pyrazolo[3,4-e][1,4]diazepin-5 (1H)-yl)methanone]

melting point: 234 to 239 °C
SMILES: CC1CCC(C(=O)N2Cc3cnn(C)c3Nc3ccccc32)CC1 (stereo not shown) [TAR-C41, (1-methyl-4,10-dihydrobenzo[b]pyrazolo[3,4-e][1,4]diazepin-5 (1H)-yl)(4-methylcyclohexyl)methanone]

melting point: > 300 °C
SMILES: Cn1ncc2c1Nc1ccccc1N(C(=O)c1ccc(C(=O)O)cc1)C2 [TAR-C077, 4-(1-methyl-1,4,5,10-tetrahydrobenzo[b]pyrazolo[3,4-e][1,4]diazepine-5-carbonyl)benzoic acid]

Ki [1]: 159 ± 32 nM | EC50 [2]: > 10000 nM | IC50 [2]: 1530 ± 444 nM | Ki [3]: 18 ± 1 nM | Emax [4]: 13% | EC50 ([4]; agonist assessment): 91 ± 25 nM | OV function [4]: 0.06
SMILES: Cn1ncc2c1Nc1ccccc1N(C(=O)c1ccc3c(c1)OCO3)C2 [TRGA95, benzo[d][1,3]dioxol-5-yl(1-methyl-4,10-dihydrobenzo[b]pyrazolo[3,4-e][1,4]diazepin-5 (1H)-yl)methanone]

Ki [1]: 22 ± 8 nM | EC50 [2]: > 10000 nM | IC50 [2]: 1650 ± 75 nM | Ki [3]: 1.8 ± 0.6 nM | Emax [4]: 8% | EC50 ([4]; agonist assessment): 41 ± 15 nM | OV function [4]: 0.02
SMILES: CCc1ccc(C(=O)N2Cc3cnn(C)c3Nc3ccccc32)cc1 [TRGA99, (4-ethylphenyl)(1-methyl-4,10-dihydrobenzo[b]pyrazolo[3,4-e][1,4]diazepin-5 (1H)-yl)methanone]

SMILES: Cn1ncc2c1Nc1ccccc1N(C(=O)C1C(C)(C)C1(C)C)C2 [TRGA111, (1-methyl-4,10-dihydrobenzo[b]pyrazolo[3,4-e][1,4]diazepin-5 (1H)-yl)(2,2,3,3-tetramethylcyclopropyl)methanone]
Ki [1]: > 10000 nM | EC50 [2]: > 10000 nM | IC50 [2]: > 10000 nM | Ki [3]: > 10000 nM | EC50 ([4]; agonist assessment): > 10000 nM | IC50 ([4]; antagonist assessment vs OT 30 nM (~EC70), IP1): > 10000 nM

melting point: 228 to 243 °C
SMILES: Cn1ncc2c1Nc1ccccc1N(C(=O)c1ccc3ccccc3c1)C2 [TRGA-81, (1-methyl-4,10-dihydrobenzo[b]pyrazolo[3,4-e][1,4]diazepin-5 (1H)-yl)(naphthalen-2-yl)methanone]

melting point: 231 to 233 °C
SMILES: Cn1ncc2c1Nc1ccccc1N(C(=O)c1cccc3ccccc13)C2 [TRGA-89, (1-methyl-4,10-dihydrobenzo[b]pyrazolo[3,4-e][1,4]diazepin-5 (1H)-yl)(naphthalen-1-YI)methanone]

Emax [4]: 45% | OV function [4]: 0.69
SMILES: Cc1cc(C(=O)N2Cc3cnn(C)c3Nc3ccccc32)ccc1CNC(=O)N1CCN(Cc2cc(O)cc(O)c2)CC1 [WAY, reference compound]

melting point: 281 to 282 °C (dec.)
SMILES: COc1ccccc1C(=O)N1Cc2cnn(C)c2Nc2ccccc21 [WJ0659, (2-Methoxyphenyl)(1-methyl-4,10-dihydrobenzo[b]pyrazolo[3,4-e][1,4]diazepin-5 (1H)-yl)methanone]

melting point: 249 to 251 °C
SMILES: Cn1ncc2c1Nc1ccccc1N(C(=O)c1ccc(Br)cc1)C2 [WJ0820, (4-Bromophenyl)(1-methyl-4,10-dihydrobenzo[b]pyrazolo[3,4-e][1,4]diazepin-5 (1H)-yl)methanone]

melting point: 218 to 220 °C
SMILES: Cn1ncc2c1Nc1ccccc1N(C(=O)c1cccc(Br)c1)C2 [WJ0821, (3-Bromophenyl)(1-methyl-4,10-dihydrobenzo[b]pyrazolo[3,4-e][1,4]diazepin-5 (1H)-yl)methanone]

melting point: 244 to 246 °C
SMILES: Cn1ncc2c1Nc1ccccc1N(C(=O)c1ccccc1Br)C2 [WJ0822, (2-Bromophenyl)(1-methyl-4,10-dihydrobenzo[b]pyrazolo[3,4-e][1,4]diazepin-5 (1H)-yl)methanone]

Ki [1]: 553 ± 155 nM | EC50 [2]: > 10000 nM | IC50 [2]: > 10000 nM | Emax [4]: 16.8% | EC50 (OXTR agonist potency, mean ± s.d.) ([4]; agonist assessment, IP1): 420 ± 37 nM | EC50 ([4]; agonist assessment): 407 ± 102 nM | melting point: 254 to 256 °C
SMILES: Cc1cccc(C(=O)N2Cc3cnn(C)c3Nc3ccccc32)c1 [WJ0823, (1-Methyl-4,10-dihydrobenzo[b]pyrazolo[3,4-e][1,4]diazepin-5 (1H)-yl)(m-tolyl)methanone]
